Measurements from patent publication US20090233942A1, “Genetic markers associated with response to antidepressants” (priority 2008, published 2009).

Tested on: adult patients diagnosed with MDD
Assay: Eight-week randomized, double-blind, placebo-controlled study: association of sequenced gene markers (Tables 1-17) with vilazodone response as change of MADRS
Assay type: in vivo, human
Conditions: mean MADRS decrease
Text: There was a wide range of inter-individual variability in response to vilazodone as well as to placebo and the active comparators. This variability may be partially due to genetic differences among the individuals treated. This example illustrates a randomized, double-blind, placebo-controlled, multicenter, eight-week study designed to discover genetic markers of response to vilazodone in adult patients diagnosed with MDD by the DSM-IV-TR criteria. Patients must have met all of the following inclusion criteria to be considered for enrollment in the study: (1) 18-65 years of age; (2) diagnosis of MDD, single episode or recurrent, according to DSM-IV-TR (296.2/296.3) with a current Major Depressive Episode of less than one year's duration with a minimum duration of at least 4 weeks; (3) HAM-D score≧22 on the first 17 items of the 21-item HAM-D at screening and baseline visits; (4) HAM-D item 1 (depressed mood) score≧2 at the screening visit and the baseline visit; (5) provision of written informed consent to participate; and (6) ability to speak, read and understand English and to respond to questions and follow simple instructions.
Following randomization into vilazodone and placebo groups, patients began the forced titration schedule. Patients received 10 mg qd until Visit 3 (approximately Day 7). At Visit 3 patients received 20 mg qd until Visit 4 (approximately Day 14). At Visit 4 patients received the target dose of 40 mg qd (approximately Day 15). A total of 152 patients completed the vilazodone arm, while 154 patients completed the placebo arm.
This example illustrates genotyping of the study group for the ACE, ATP5C3, BCL2L1, CYP2C9, DRD3, FOS, DTNBP1, GABRG3, GRIA4, LAMA4, MAPK1, NPY1R, OPRD1, OPRM1, PER3, PLCB1, and PSMD1 polymorphic sites selected by the inventors herein for analysis. Genomic DNA was isolated from blood obtained from each individual and amplified target regions containing the polymorphic sites in Tables A-21 to A-37 (Appendix A) were sequenced to determine the genotypes at these polymorphic sites. Tailed (Universal M13 Forward and Reverse) PCR primers were designed using the sequence of SEQ ID NO:1 for ACE, SEQ ID NO:2 for ATP5C3, SEQ ID NO:3 for BCL2L1, SEQ ID NO:4 for CYP2C9, SEQ ID NO:5 for DRD3, SEQ ID NO:6 for FOS, SEQ ID NO:7 for DTNBP1, SEQ ID NO:8 for GABRG3, SEQ ID NO:9 for GRIA4, SEQ ID NO:10 for LAMA4, SEQ ID NO:11 for MAPK1, SEQ ID NO:12 for NPY1R, SEQ ID NO:13 for OPRD1, SEQ ID NO:14 for OPRM1, SEQ ID NO:15 for PER3, SEQ ID NO:16 for PLCB1, and SEQ ID NO:17 for PSMD1. Amplified PCR products were sequenced using Applied Biosystems' Big Dye® Terminator v 3.1 cycle sequencing kit according to manufacturer's instructions. The reaction products were then electrophoresed using an Applied Biosystems 3700 or 3730xl DNA analyzer. Polymorphisms were identified using the Polyphred program, and confirmed by visual inspection.
Haplotypes were estimated from the unphased genotypes using a computer-implemented algorithm for assigning haplotypes to unrelated individuals in a population sample, essentially as described in WO 01/80156. In this method, haplotypes are assigned directly from individuals who are homozygous at all sites or heterozygous at no more than one of the variable sites. This list of haplotypes is then used to deconvolute the unphased genotypes in the remaining (multiply heterozygous) individuals.
This example illustrates analysis of the markers in Tables A-1 to A-17 (Appendix A) for association with vilazodone response. A proprietary algorithm was used as a tool for finding associations between markers and outcomes. The clinical outcomes were improvement in disease over eight weeks of treatment with vilazodone as measured by the MADRS scale. A linear model was first fitted on the covariates, which were treatment center, race, ethnicity, and baseline values. […]

[1] = PLCB1 marker 106, carriers vs non-carriers
[2] = PLCB1 marker 107, carriers vs non-carriers
[3] = PLCB1 marker 108, carriers vs non-carriers
[4] = PLCB1 marker 109, carriers vs non-carriers
[5] = PLCB1 marker 110, carriers vs non-carriers
[6] = PLCB1 marker 111, carriers vs non-carriers
[7] = PLCB1 marker 112, carriers vs non-carriers
[8] = PLCB1 marker 113, carriers vs non-carriers
[9] = PLCB1 marker 114, carriers vs non-carriers
[10] = PLCB1 marker 115, carriers vs non-carriers
[11] = PLCB1 marker 116, carriers vs non-carriers
[12] = PLCB1 marker 117, carriers vs non-carriers
[13] = PLCB1 marker 118, carriers vs non-carriers
[14] = PLCB1 marker 119, carriers vs non-carriers
[15] = PLCB1 marker 120, carriers vs non-carriers
[16] = PLCB1 marker 121, carriers vs non-carriers
[17] = PLCB1 marker 122, carriers vs non-carriers
[18] = PLCB1 marker 123, carriers vs non-carriers
[19] = PLCB1 marker 124, carriers vs non-carriers
[20] = PLCB1 marker 125, carriers vs non-carriers
[21] = PLCB1 marker 126, carriers vs non-carriers
[22] = PLCB1 marker 127, carriers vs non-carriers
[23] = PLCB1 marker 128, carriers vs non-carriers
[24] = PLCB1 marker 129, carriers vs non-carriers
[25] = PLCB1 marker 130, carriers vs non-carriers

## Cl.N#Cc1ccc2[nH]cc(CCCCN3CCN(c4ccc5oc(C(N)=O)cc5c4)CC3)c2c1 [Vilazodone, 5-{4-[4-(5-Cyano-3-indolyl)-butyl]-1-piperazinyl}-benzofuran-2-carboxamide hydrochloride]
[1]
  Response difference (Cauc. only): −6.6
  Response difference (all ethnic.): −4.6
[2]
  Response difference (Cauc. only): −6.6
  Response difference (all ethnic.): −4.6
[3]
  Response difference (Cauc. only): −6.6
  Response difference (all ethnic.): −4.6
[4]
  Response difference (Cauc. only): −6.6
  Response difference (all ethnic.): −4.6
[5]
  Response difference (Cauc. only): −6.7
  Response difference (all ethnic.): −4.7
[6]
  Response difference (Cauc. only): −6.7
  Response difference (all ethnic.): −4.7
[7]
  Response difference (Cauc. only): −6.7
  Response difference (all ethnic.): −4.7
[8]
  Response difference (Cauc. only): −6.7
  Response difference (all ethnic.): −4.7
[9]
  Response difference (Cauc. only): −6.7
  Response difference (all ethnic.): −4.7
[10]
  Response difference (Cauc. only): −6.7
  Response difference (all ethnic.): −4.7
[11]
  Response difference (Cauc. only): −6.7
  Response difference (all ethnic.): −4.7
[12]
  Response difference (Cauc. only): −6.7
  Response difference (all ethnic.): −4.7
[13]
  Response difference (Cauc. only): −6.7
  Response difference (all ethnic.): −4.7
[14]
  Response difference (Cauc. only): −6.7
  Response difference (all ethnic.): −4.7
[15]
  Response difference (Cauc. only): −6.7
  Response difference (all ethnic.): −4.7
[16]
  Response difference (Cauc. only): −6.7
  Response difference (all ethnic.): −4.7
[17]
  Response difference (Cauc. only): −6.7
  Response difference (all ethnic.): −4.7
[18]
  Response difference (Cauc. only): −6.7
  Response difference (all ethnic.): −4.7
[19]
  Response difference (Cauc. only): −5.9
  Response difference (all ethnic.): −4.2
[20]
  Response difference (Cauc. only): −5.9
  Response difference (all ethnic.): −4.2
[21]
  Response difference (Cauc. only): −5.9
  Response difference (all ethnic.): −4.2
[22]
  Response difference (Cauc. only): −5.9
  Response difference (all ethnic.): −4.2
[23]
  Response difference (Cauc. only): −5.9
  Response difference (all ethnic.): −4.2
[24]
  Response difference (Cauc. only): −5.9
  Response difference (all ethnic.): −4.2
[25]
  Response difference (Cauc. only): −5.9
  Response difference (all ethnic.): −4.2
